Test results: ChEMBL document CHEMBL2074048, “Identification of a region of the ileal-type sodium/bile acid cotransporter interacting with a competitive bile acid transport inhibitor” (Biochemistry, 2002)

What was measured:
[1] = molecular target: T1, Ileal sodium/bile acid cotransporter (Mus musculus, UniProt P70172); experiment: (§1) TP_TRANSPORTER: inhibition of Taurocholate accumulation in ASBT-expressing HEK293 cells; format: functional, cell-based
T1 sequence (P70172 whole entry): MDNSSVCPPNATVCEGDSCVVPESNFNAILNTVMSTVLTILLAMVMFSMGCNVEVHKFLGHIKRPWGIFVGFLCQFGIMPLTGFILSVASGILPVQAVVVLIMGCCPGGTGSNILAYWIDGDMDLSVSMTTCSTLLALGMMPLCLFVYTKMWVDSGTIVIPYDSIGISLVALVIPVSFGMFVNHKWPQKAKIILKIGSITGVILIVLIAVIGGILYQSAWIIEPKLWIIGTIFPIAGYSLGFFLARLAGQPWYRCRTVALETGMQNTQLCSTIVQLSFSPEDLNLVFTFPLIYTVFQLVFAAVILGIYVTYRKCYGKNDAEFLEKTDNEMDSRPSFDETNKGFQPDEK

[2] = molecular target: T2, Ileal sodium/bile acid cotransporter (Homo sapiens, UniProt Q12908); experiment: as §1; format: functional, cell-based
T2 sequence (Q12908 whole entry): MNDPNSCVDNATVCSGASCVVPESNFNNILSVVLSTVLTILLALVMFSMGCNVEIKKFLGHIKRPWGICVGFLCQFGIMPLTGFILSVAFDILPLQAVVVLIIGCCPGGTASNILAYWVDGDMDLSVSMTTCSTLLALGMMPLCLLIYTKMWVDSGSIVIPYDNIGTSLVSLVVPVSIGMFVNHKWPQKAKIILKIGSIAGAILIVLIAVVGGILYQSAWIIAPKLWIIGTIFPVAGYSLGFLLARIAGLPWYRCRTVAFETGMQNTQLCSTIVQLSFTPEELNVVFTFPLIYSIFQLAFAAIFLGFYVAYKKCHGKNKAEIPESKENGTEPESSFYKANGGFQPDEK

Ki [1]: 0.068 µM
Ki [2]: 10 µM
Structure (SMILES): CCCC[C@]1(CC)CS(=O)(=O)c2ccccc2[C@@H](c2ccccc2)N1
